Measurements from US20100190832A1, “Mechanism-based inhibitors of transthyretin amyloidosis: studies with biphenyl ethers and structural templates” (NATIONAL INSTITUTE OF IMMUNOLOGY., priority 2008, published 2010).

Target: T1, WT-TTR (Homo sapiens, UniProt P02766)
T1 construct: made in house
Assay: Stagnant acid-mediated TTR aggregation (fibril formation) assay, turbidity at 340 nm
Type: biochemical
Settings: for remaining activity at 100 µM / inhibition at 100 µM: pH 4.4, compound 100 μM, WT-TTR 7.2 μM, pH 4.4, 37° C.; for remaining activity at 100 µM: read-out: % FF; for inhibition at 100 µM: read-out: % Inhibition
Experimental: Stagnant Acid-Mediated TTR Aggregation Assay.
After 1 h, the samples were diluted with 0.5 ml of 200 mM sodium acetate buffer containing 100 mM KCl and 1 mM EDTA. Samples after mild vortexing were incubated at 37° C. for the desired amount of time without stirring to evaluate the efficacy of the inhibitors. The extent of aggregation was probed by turbidity measurements at 340 nm using Tecan GENios microplate reader. […] The extent of TTR fibril formation in the absence of inhibitor was defined to be 100%. […] All experiments were done in triplicate. […] The IC50 was determined by plotting mean of % inhibition vs log and fitted to sigmoid equation:
The experiments were conducted at 25° C. After 1 h, the samples were diluted with 0.5 mL of 200 mM sodium acetate buffer pH 4.4 containing 100 mM KCl and 1 mM EDTA, vortexed, and incubated at 37° C. for 72 h. […] The stoichiometry of the binding of the inhibitors was determined by HPLC as described by Green et al., N. S. Palaninathan, S, L, Sacchettini, J. e. […] Dissociation constant of binding of these compounds to TTR was determined by fluorescence titration, and data were fitted into the Adair equation for two bind mg.

Row | SMILES | remaining activity at 100 µM (72 h) | inhibition at 100 µM | remaining activity at 50 µM (72 h, read-out: % FF at 50 μM) | IC50 (Table 3, WT-TTR 7.2 μM, read-out: IC50)
1 | COc1ccc(NC(=S)N(CCCN2CCOCC2)Cc2cccnc2)cc1 [Compound C087-0811] | 98.6% | 1.4% | – | –
2 | O=C(O)C1CSC(c2ccc(Cl)cc2Cl)N1 (centres unmarked) [Compound K085-0018] | 22.3% | 77.7% | – | –
3 | COc1ccc(/C=C2\SC(=S)N(c3ccc(O)cc3)C2=O)cc1 [Compound 2189-0710] | 281% | 0% | – | –
4 | Cc1ccc(/C=c2/sc3nc4ccccc4n3c2=O)cc1 [Compound 3062-0586] | 125% | 0% | – | –
5 | COc1cc(C(=O)O)ccc1Oc1ccc([N+](=O)[O-])cc1[N+](=O)[O-] [Compound 21] | – | – | 48% | 20 µM
6 | O=C1/C(=C\c2ccco2)SC(=S)N1c1cccc(F)c1 [Compound 2027-0159] | 340% | 0% | – | –
7 | Cc1ccsc1/C=c1\sc2nc(-c3cccs3)nn2c1=O [Compound 5629-0544] | 77.8% | 22.3% | – | –
8 | Cc1ccn2c(Nc3ccc(F)cc3)c(-c3ccccn3)nc2c1 [Compound C273-0218] | 162% | 0% | – | –
9 | CCN1C(=O)/C(=C/c2ccc(N(CC)CC)cc2O)SC1=S [Compound 1996-0170] | 177% | 0% | – | –
10 | Oc1ccc(-c2nnc(S)o2)cc1 [Compound 0350-0159] | 19.2% | 80.8% | – | –
11 | Cc1nc2ccc(Cl)cc2c(O)c1CN1CCCC1 [Compound 4358-1240] | 81.8% | 18.2% | – | –
12 | Cc1cc(C(=O)Nc2cc(Cl)ccc2O)no1 [Compound C226-2564] | 96.8% | 3.18% | – | –
13 | O=c1c2sccc2n(Cc2ccc(F)cc2Cl)c(=O)n1-c1cc(F)ccc1F [Compound C241-0192] | 117% | 0% | – | –
14 | CSC1=NSC2=NC(=O)/C(=C\c3ccc[nH]3)C(=N)N12 [Compound C146-0661] | 202% | 0% | – | –
15 | Oc1ccc(-c2nc3ncccn3c2Nc2ccc(Cl)cc2)cc1 [Compound C239-0727] | 135% | 0% | – | –
16 | O=C1/C(=C\c2cccc(O)c2)SC(=S)N1c1ccc(F)cc1 [Compound 3232-1704] | 309% | 0% | – | –
17 | O=C(O)C1CSC(c2ccc(Cl)cc2)N1 (centres unmarked) [Compound K085-0001] | 142% | 0% | – | –
18 | O=c1c2ccccc2nc2sc(Nc3ccc(F)cc3F)nn12 [Compound K284-2958] | -2.03% | 102% | – | –
19 | O=C(Nc1c2c(nn1-c1cccc(Cl)c1)C[S+]([O-])C2)c1ccccc1F (centres unmarked) [Compound C077-0215] | 89.5% | 10.4% | – | –
20 | O=C(c1cnc(Nc2ccc(F)cc2)c2ccccc12)n1ccnc1 [Compound C066-1627] | – | 0% | – | –
21 | O=C(Nc1nnc[nH]1)c1c(Cl)ccc(Cl)c1Cl [Compound 3232-0353] | 11.5% | 88.5% | – | –
22 | COc1ccc(NC(=S)N(CCCN2CCOCC2)Cc2cccs2)cc1 [Compound C087-0783] | 102% | 0% | – | –
23 | Cc1ccc2nc(NC(=O)c3ccccc3O)sc2c1 [Compound 1300-0073] | 368% | 0% | – | –
24 | O=c1/c(=C\c2ccccc2Cl)sc2nc3ccccc3n12 [Compound 3062-0592] | 71% | 29.1% | – | –
